Source: US10752624B2, “Kinase inhibitors” (Origenis GmbH, priority 2012, dated 2020)

Biological target: LRRK2 (Homo sapiens, UniProt Q5S007)
Test: LRRK2-LRRK2 G2019S-Assay (LanthaScreen Eu Kinase Binding Assay)
Conditions: 5 nM LRRK2, 10 nM tracer 236, 2 nM EU-Anti-GST antibody, 1 h at RT; read-out: LRRK2 Activities: IC50
In short: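 In a TR-FRET tracer displacement assay, LRRK2 or its mutants at 5 nM were mixed with 2 nM Eu-anti-GST antibody and 10 nM tracer 236 in kinase buffer A for 1 h at RT. The 665/615 nm emission ratio was plotted against inhibitor concentration, and IC50 came from a variable-slope sigmoidal fit.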

Chain of LRRK2 (Q5S007 970-2527 limits assumed): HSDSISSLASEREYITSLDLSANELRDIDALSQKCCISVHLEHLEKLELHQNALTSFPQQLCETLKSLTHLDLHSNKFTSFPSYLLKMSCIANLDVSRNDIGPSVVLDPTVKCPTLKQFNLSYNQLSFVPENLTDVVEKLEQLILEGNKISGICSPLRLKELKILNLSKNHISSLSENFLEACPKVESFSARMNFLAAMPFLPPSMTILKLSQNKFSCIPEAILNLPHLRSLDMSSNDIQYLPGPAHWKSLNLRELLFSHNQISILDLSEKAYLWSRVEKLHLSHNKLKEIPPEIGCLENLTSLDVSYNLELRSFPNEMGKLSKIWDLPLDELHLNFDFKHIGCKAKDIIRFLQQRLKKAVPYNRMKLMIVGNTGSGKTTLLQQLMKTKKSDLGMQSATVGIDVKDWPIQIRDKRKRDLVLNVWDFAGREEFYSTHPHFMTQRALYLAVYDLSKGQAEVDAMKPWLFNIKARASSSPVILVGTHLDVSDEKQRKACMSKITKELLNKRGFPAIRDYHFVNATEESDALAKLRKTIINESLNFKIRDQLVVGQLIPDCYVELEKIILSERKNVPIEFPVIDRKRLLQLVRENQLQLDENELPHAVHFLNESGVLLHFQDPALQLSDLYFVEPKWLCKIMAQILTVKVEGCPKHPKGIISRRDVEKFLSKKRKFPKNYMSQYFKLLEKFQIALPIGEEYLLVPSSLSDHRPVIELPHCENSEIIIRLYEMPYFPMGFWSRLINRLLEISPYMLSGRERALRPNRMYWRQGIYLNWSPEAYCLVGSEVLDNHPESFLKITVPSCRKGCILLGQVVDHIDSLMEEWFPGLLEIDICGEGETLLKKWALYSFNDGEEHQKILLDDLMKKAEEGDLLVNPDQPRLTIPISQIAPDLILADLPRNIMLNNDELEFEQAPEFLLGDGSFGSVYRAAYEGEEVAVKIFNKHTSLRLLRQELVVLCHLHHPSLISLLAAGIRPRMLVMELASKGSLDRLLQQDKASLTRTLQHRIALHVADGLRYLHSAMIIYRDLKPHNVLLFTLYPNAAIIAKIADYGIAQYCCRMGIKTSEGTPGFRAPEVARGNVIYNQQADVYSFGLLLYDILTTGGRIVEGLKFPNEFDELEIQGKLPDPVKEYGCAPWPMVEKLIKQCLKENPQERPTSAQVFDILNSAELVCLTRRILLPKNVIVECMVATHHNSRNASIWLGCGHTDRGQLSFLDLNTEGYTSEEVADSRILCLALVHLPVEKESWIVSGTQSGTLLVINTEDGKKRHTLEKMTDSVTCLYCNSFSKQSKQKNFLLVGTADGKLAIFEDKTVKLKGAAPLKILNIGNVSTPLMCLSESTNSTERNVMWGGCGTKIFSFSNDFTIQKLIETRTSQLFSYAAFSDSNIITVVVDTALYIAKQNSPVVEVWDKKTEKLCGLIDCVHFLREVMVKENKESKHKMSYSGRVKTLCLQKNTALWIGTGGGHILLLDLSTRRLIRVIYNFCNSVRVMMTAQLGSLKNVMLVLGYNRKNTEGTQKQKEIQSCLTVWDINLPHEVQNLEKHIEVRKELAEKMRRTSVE

Row | Structure (SMILES) | IC50
1 | CC(C)n1cc(Nc2nc3ccc(S(C)(=O)=O)cc3c3cn[nH]c23)c(C(N)=O)n1 [Example 250, 1-isopropyl-4-((8-(methylsulfonyl)-3H-pyrazolo[3,4-c]quinolin-4-yl)amino)-1H-pyrazole-3-carboxamide] | 100 to 1000 nM
2 | CC(C)n1ncc(Nc2nc3ccc(S(C)(=O)=O)cc3c3cn[nH]c23)c1C(N)=O [Example 251, 1-isopropyl-4-((8-(methylsulfonyl)-3H-pyrazolo[3,4-c]quinolin-4-yl)amino)-1H-pyrazole-5-carboxamide] | 100 to 1000 nM
3 | COCCn1cc(Nc2nc3cccc(OC)c3c3cn[nH]c23)c(C(F)(F)F)n1 [Example 267, 9-methoxy-N-(1-(2-methoxyethyl)-3-(trifluoromethyl)-1H-pyrazol-4-yl)-3H-pyrazolo[3,4-c]quinolin-4-amine] | 100 to 1000 nM
4 | COCCn1ncc(Nc2nc3cccc(OC)c3c3cn[nH]c23)c1C(F)(F)F [Example 268, 9-methoxy-N-(1-(2-methoxyethyl)-5-(trifluoromethyl)-1H-pyrazol-4-yl)-3H-pyrazolo[3,4-c]quinolin-4-amine] | 100 to 1000 nM
5 | COCCn1ncc(Nc2nc3ccc(S(C)(=O)=O)cc3c3cn[nH]c23)c1C [Example 282, N-(1-(2-methoxyethyl)-5-methyl-1H-pyrazol-4-yl)-8-(methylsulfonyl)-3H-pyrazolo[3,4-c]quinolin-4-amine] | 100 to 1000 nM
6 | COc1cccc2c1nc(Nc1ccc(N3CCOCC3)cc1)c1[nH]ncc12 [Example 304, 6-methoxy-N-(4-morpholinophenyl)-3H-pyrazolo[3,4-c]quinolin-4-amine] | 100 to 1000 nM
7 | COc1cccc2c1nc(Nc1cnn(C(C)C)c1)c1[nH]ncc12 [Example 305, N-(1-isopropyl-1H-pyrazol-4-yl)-6-methoxy-3H-pyrazolo[3,4-c]quinolin-4-amine] | 10 to 100 nM
8 | COCCCn1cc(Nc2nc3c(OC)cccc3c3cn[nH]c23)cn1 [Example 306, 6-methoxy-N-(1-(3-methoxypropyl)-1H-pyrazol-4-yl)-3H-pyrazolo[3,4-c]quinolin-4-amine] | 100 to 1000 nM
9 | COc1cc(OC)c2nc(Nc3ccc(C(=O)N4CCOCC4)cc3)c3[nH]ncc3c2c1 [Example 308, (4-((6,8-dimethoxy-3H-pyrazolo[3,4-c]quinolin-4-yl)amino)phenyl)(morpholino)methanone] | 10 to 100 nM
10 | CC(C)(O)Cn1cc(Nc2nc3ccc(S(C)(=O)=O)cc3c3cn[nH]c23)cn1 [Example 317, 2-methyl-1-(4-((8-(methylsulfonyl)-3H-pyrazolo[3,4-c]quinolin-4-yl)amino)-1H-pyrazol-1-yl)propan-2-ol] | 10 to 100 nM
11 | CCN1C(=O)COc2ccc(Nc3nc4ccc(OC)cc4c4c[nH]nc34)cc21 [Example 318, 4-ethyl-6-((8-methoxy-2H-pyrazolo[3,4-c]quinolin-4-yl)amino)-2H-benzo[b][1,4]oxazin-3(4H)-one] | 100 to 1000 nM
12 | COc1ccc2nc(Nc3cnn(-c4ccccn4)c3)c3n[nH]cc3c2c1 [Example 319, 8-methoxy-N-(1-(pyridin-2-yl)-1H-pyrazol-4-yl)-2H-pyrazolo[3,4-c]quinolin-4-amine] | 10 to 100 nM
13 | COc1ccc2nc(Nc3cnn(C(C)c4ccccc4)c3)c3n[nH]cc3c2c1 (stereo not shown) [Example 320, 8-methoxy-N-(1-(1-phenylethyl)-1H-pyrazol-4-yl)-2H-pyrazolo[3,4-c]quinolin-4-amine] | 100 to 1000 nM
14 | COc1ccc2nc(Nc3ccc4c(c3)N(C)C(=O)CO4)c3n[nH]cc3c2c1 [Example 322, 6-((8-methoxy-2H-pyrazolo[3,4-c]quinolin-4-yl)amino)-4-methyl-2H-benzo[b][1,4]oxazin-3(4H)-one] | 100 to 1000 nM

The next lines start with the values.

Row | IC50 | Structure (SMILES)
15 | < 10 nM | COc1cccc2nc(Nc3cnn(C4CCNCC4)c3Cl)c3[nH]ncc3c12 [Example 254, N-(5-chloro-1-(piperidin-4-yl)-1H-pyrazol-4-yl)-9-methoxy-3H-pyrazolo[3,4-c]quinolin-4-amine]
16 | < 10 nM | COc1cccc2nc(Nc3cnn(C4CCOCC4)c3Cl)c3[nH]ncc3c12 [Example 255, N-(5-chloro-1-(tetrahydro-2H-pyran-4-yl)-1H-pyrazol-4-yl)-9-methoxy-3H-pyrazolo[3,4-c]quinolin-4-amine]
17 | < 10 nM | CS(=O)(=O)c1ccc2nc(Nc3cnn(C4CCOCC4)c3Cl)c3[nH]ncc3c2c1 [Example 265, N-(5-chloro-1-(tetrahydro-2H-pyran-4-yl)-1H-pyrazol-4-yl)-8-(methylsulfonyl)-3H-pyrazolo[3,4-c]quinolin-4-amine]
18 | 10 to 100 nM | COc1cccc2nc(Nc3cnn(C(C)C)c3C(N)=O)c3[nH]ncc3c12 [Example 266, 1-isopropyl-4-((9-methoxy-3H-pyrazolo[3,4-c]quinolin-4-yl)amino)-1H-pyrazole-5-carboxamide]
19 | < 10 nM | Cc1nn(CCF)cc1Nc1nc2ccc(S(C)(=O)=O)cc2c2cn[nH]c12 [Example 269, N-(1-(2-fluoroethyl)-3-methyl-1H-pyrazol-4-yl)-8-(methylsulfonyl)-3H-pyrazolo[3,4-c]quinolin-4-amine]
20 | < 10 nM | Cc1c(Nc2nc3ccc(S(C)(=O)=O)cc3c3cn[nH]c23)cnn1CCF [Example 270, N-(1-(2-fluoroethyl)-5-methyl-1H-pyrazol-4-yl)-8-(methylsulfonyl)-3H-pyrazolo[3,4-c]quinolin-4-amine]
21 | 10 to 100 nM | COCCn1cc(Nc2nc3ccc(S(C)(=O)=O)cc3c3cn[nH]c23)c(C(F)(F)F)n1 [Example 271, N-(1-(2-methoxyethyl)-3-(trifluoromethyl)-1H-pyrazol-4-yl)-8-(methylsulfonyl)-3H-pyrazolo[3,4-c]quinolin-4-amine]
22 | 10 to 100 nM | COCCn1ncc(Nc2nc3ccc(S(C)(=O)=O)cc3c3cn[nH]c23)c1C(F)(F)F [Example 272, N-(1-(2-methoxyethyl)-5-(trifluoromethyl)-1H-pyrazol-4-yl)-8-(methylsulfonyl)-3H-pyrazolo[3,4-c]quinolin-4-amine]
23 | 10 to 100 nM | COCCn1cc(Nc2nc3ccc(S(C)(=O)=O)cc3c3cn[nH]c23)c(C#N)n1 [Example 274, 1-(2-methoxyethyl)-4-((8-(methylsulfonyl)-3H-pyrazolo[3,4-c]quinolin-4-yl)amino)-1H-pyrazole-3-carbonitrile]
24 | 10 to 100 nM | COCCn1ncc(Nc2nc3cccc(OC)c3c3cn[nH]c23)c1Br [Example 275, N-(5-bromo-1-(2-methoxyethyl)-1H-pyrazol-4-yl)-9-methoxy-3H-pyrazolo[3,4-c]quinolin-4-amine]
25 | 10 to 100 nM | COCCn1ncc(Nc2nc3cccc(OC)c3c3cn[nH]c23)c1F [Example 276, N-(5-fluoro-1-(2-methoxyethyl)-1H-pyrazol-4-yl)-9-methoxy-3H-pyrazolo[3,4-c]quinolin-4-amine]
26 | 10 to 100 nM | COCCn1ncc(Nc2nc3ccc(S(C)(=O)=O)cc3c3cn[nH]c23)c1Br [Example 279, N-(5-bromo-1-(2-methoxyethyl)-1H-pyrazol-4-yl)-8-(methylsulfonyl)-3H-pyrazolo[3,4-c]quinolin-4-amine]
27 | 10 to 100 nM | Cc1c(Nc2nc3ccc(S(C)(=O)=O)cc3c3cn[nH]c23)cnn1C1CCOCC1 [Example 281, N-(5-methyl-1-(tetrahydro-2H-pyran-4-yl)-1H-pyrazol-4-yl)-8-(methylsulfonyl)-3H-pyrazolo[3,4-c]quinolin-4-amine]
28 | 10 to 100 nM | COc1ccc2nc(Nc3ccc(N4CCC(O)CC4)cc3)c3[nH]ncc3c2c1 [Example 296, 1-(4-((8-methoxy-3H-pyrazolo[3,4-c]quinolin-4-yl)amino)phenyl)piperidin-4-ol]
